Assay results taken from patent US9040663B2, “Melanocortin receptor-specific peptides” (AstraZeneca AB, priority 2009, dated 2015).
Read-outs that look alike come from different tables or passages of the source. Positions of bridges follow the written chain, without caps; N, C: chain ends. Non-standard residues stand in square brackets, D forms with d. Residues, ends and D or L forms follow the SMILES beside them. dPhe(4-CN) = N#Cc1ccc(C[C@@H](N)C(=O)O)cc1; dPhe(3-Cl) = N[C@H](Cc1cccc(Cl)c1)C(=O)O; Orn = NCCC[C@H](N)C(=O)O

What was measured:
hMC4-R [1] = biological target: T1, hMC4-R (Homo sapiens (Human), UniProt P32245); test: High and low density hMC4-R functional assay (cAMP, HEK293-T-REx-MC4-R cells); assay type: cell-based; conditions: for Emax: NDP-α-MSH = 100%, read-out: Intrinsic Activity (%)
T1 sequence (P32245 whole entry): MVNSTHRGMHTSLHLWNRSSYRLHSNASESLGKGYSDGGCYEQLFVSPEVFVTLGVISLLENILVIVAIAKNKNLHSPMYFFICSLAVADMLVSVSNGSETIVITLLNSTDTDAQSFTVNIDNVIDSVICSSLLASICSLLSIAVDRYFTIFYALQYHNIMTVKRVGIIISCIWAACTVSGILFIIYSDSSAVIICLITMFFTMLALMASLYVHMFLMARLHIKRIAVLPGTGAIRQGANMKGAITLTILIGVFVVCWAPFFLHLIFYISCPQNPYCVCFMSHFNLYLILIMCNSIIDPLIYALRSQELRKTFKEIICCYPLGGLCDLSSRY
Description: The cells were then dispensed into 96-well plates (BD 353916) in 198 μL (about 5×10^4) cells/well and incubated for 10 minutes at 37° C. The compound to be tested was diluted with DMSO to a final concentration of 1 mM. […] 120 μL of the 1 mM compound stock was pipetted in the second column on the plate. […] All assay samples were run in duplicate (i.e. each sample was in two low dox and two high dox plates, respectively). The plates were gently shaken and incubated for 15 minutes at 37° C.

hMC4-R [2] = biological target: T1, hMC4-R; test: Competitive inhibition binding assay using [I125]-NDP-α-MSH, hMC4-R; conditions: membranes of HEK-293 cells expressing recombinant hMC4-R, read-out: MC4-R Ki
Description: 7.1 Competitive Inhibition Assay using [I^125]-NDP-α-MSH.
A competitive inhibition binding assay was performed for exemplified peptides according to the invention using membrane homogenates prepared from HEK-293 cells that express recombinant hMC4-R, hMC3-R, or hMC5-R, and from B-16 mouse melanoma cells (containing endogenous MC1-R). In some instances, HEK-293 cells that express recombinant hMC1-R were employed. Assays were performed in 96 well GF/B Millipore multiscreen filtration plates (MAFB NOB10) pre-coated with 0.5% bovine serum albumin (Fraction V). Membrane homogenates were incubated with 0.2 nM (for hMC4-R) 0.4 nM (for MC3-R and MC5-R) or 0.1 nM (for mouse B16 MC1-R or hMC1-R) [I^125]-NDP-α-MSH (Perkin Elmer) and increasing concentrations of test peptides of the present invention in buffer containing 25 mM HEPES buffer (pH 7.5) with 100 mM NaCl, 2 mM CaCl2, 2 mM MgCl2, 0.3 mM 1,10-phenanthroline, and 0.2% bovine serum albumin. After incubation for 60 minutes at 37° C., the assay mixture was filtered and the membranes washed three times with ice-cold buffer. Filters were dried and counted in a gamma counter for bound radioactivity. […] Maximal specific binding (100%) was defined as the difference in radioactivity (cpm) bound to cell membranes in the absence and presence of 1 μM NDP-α-MSH. […] Each assay was conducted in triplicate and the actual mean values are described, with results less than 0% reported as 0%. Ki values for test peptides of the present invention were determined using Graph-Pad Prism® curve-fitting software.

[3] = 0.1 ng/mL Doxycycline (low density hMC4-R system)
[4] = 10 ng/mL Doxycycline (high density hMC4-R system)

Structure (SMILES) | Emax (hMC4-R [1]; [3]) [%] | Emax (hMC4-R [1]; [4]) [%] | Ki (hMC4-R [2]) [nM] | EC50 (hMC4-R [1]; [3]) [nM] | EC50 (hMC4-R [1]; [4]) [nM]
CC(=O)N[C@@H](CCCNC(=N)N)C(=O)N[C@H]1CC(=O)NCCCC[C@@H](C(N)=O)NC(=O)[C@H](Cc2c[nH]c3ccccc23)NC(=O)[C@H](CCCNC(=N)N)NC(=O)[C@@H](Cc2ccc(C#N)cc2)NC(=O)[C@H](CC(N)=O)NC1=O [Example 89, Ac-Arg-cyclo(Asp-Asn-D-Phe(4-CN)-Arg-Trp-Lys)-NH2] (Ac-RDN[dPhe(4-CN)]RWK-NH2; lactam 2-7) | 6 | 87 | 48 | – | –
CC(=O)N[C@@H](CCCNC(=N)N)C(=O)N[C@H]1CC(=O)NCCCC[C@@H](C(N)=O)NC(=O)[C@H](Cc2c[nH]c3ccccc23)NC(=O)[C@H](CCCNC(=N)N)NC(=O)[C@@H](Cc2ccc(C#N)cc2)NC(=O)[C@H](CCC(N)=O)NC1=O [Example 90, Ac-Arg-cyclo(Asp-Gln-D-Phe(4-CN)-Arg-Trp-Lys)-NH2] | 31 | 96 | 5 | 4 | –
CC(=O)N[C@@H](CCCNC(=N)N)C(=O)N[C@H]1CCC(=O)NCCC[C@@H](C(N)=O)NC(=O)[C@H](Cc2c[nH]c3ccccc23)NC(=O)[C@H](CCCNC(=N)N)NC(=O)[C@@H](Cc2ccc(-c3ccccc3)cc2)NC(=O)[C@H](CCN)NC1=O [Example 29, Ac-Arg-cyclo(Glu-Dab-D-Phe(4-Ph)-Arg-Trp-Orn)-NH2] | 14 | 100 | 0.5 | 3 | 0.8
CC(=O)N[C@@H](CCCNC(=N)N)C(=O)N[C@H]1CCCNC(=O)CC[C@@H](C(N)=O)NC(=O)[C@H](Cc2c[nH]c3ccccc23)NC(=O)[C@H](CCCNC(=N)N)NC(=O)[C@@H](Cc2ccccc2C(F)(F)F)NC(=O)[C@H](CC(N)=O)NC1=O [Example 117, Ac-Arg-cyclo(Orn-Asn-D-Phe(2-CF3)-Arg-Trp-Glu)-NH2] | 50 | 112 | 5 | 1 | –
CC(=O)N[C@@H](CCCNC(=N)N)C(=O)N[C@H]1CCC(=O)NCCC[C@@H](C(N)=O)NC(=O)[C@H](Cc2c[nH]c3ccccc23)NC(=O)[C@H](CCCNC(=N)N)NC(=O)[C@@H](Cc2ccccc2Cl)NC(=O)[C@@H]2CCCN2C1=O [Example 88, Ac-Arg-cyclo(Glu-Pro-D-Phe(2-Cl)-Arg-Trp-Orn)-NH2] | 15 | 89 | 5 | 3 | 0.35
COc1cccc(C[C@H]2NC(=O)[C@H](CCN)NC(=O)[C@@H](NC(=O)[C@H](CCCNC(=N)N)NC(C)=O)CCC(=O)NCCC[C@@H](C(N)=O)NC(=O)[C@H](Cc3c[nH]c4ccccc34)NC(=O)[C@H](CCCNC(=N)N)NC2=O)c1 [Example 87, Ac-Arg-cyclo(Glu-Dab-D-Phe(3-OMe)-Arg-Trp-Orn)-NH2] | 64 | 100 | 3 | 1 | 0.065
CC(=O)N[C@@H](CCCNC(=N)N)C(=O)N[C@H]1CCC(=O)NCCC[C@@H](C(N)=O)NC(=O)[C@H](Cc2c[nH]c3ccccc23)NC(=O)[C@H](CCCNC(=N)N)NC(=O)[C@@H](Cc2ccc(C(C)(C)C)cc2)NC(=O)[C@H](CCN)NC1=O [Example 30, Ac-Arg-cyclo(Glu-Dab-D-Phe(4-tBu)-Arg-Trp-Orn)-NH2] | 2 | 9 | 4 | – | 25
CC(=O)N[C@H](CCCNC(=N)N)C(=O)N[C@H]1CC(=O)NCCCC[C@@H](C(N)=O)NC(=O)[C@H](Cc2c[nH]c3ccccc23)NC(=O)[C@H](CCCNC(=N)N)NC(=O)[C@@H](Cc2ccc(F)c(F)c2)NC(=O)[C@H](CCC(N)=O)NC1=O [Example 78, Ac-D-Arg-cyclo(Asp-Gln-D-Phe(3,4-diF)-Arg-Trp-Lys)-NH2] | 48 | 89 | 8 | 2 | 0.2
CC(=O)N[C@@H](CCCNC(=N)N)C(=O)N[C@H]1CCC(=O)NCCC[C@@H](C(N)=O)NC(=O)[C@H](Cc2c[nH]c3ccccc23)NC(=O)[C@H](CCCNC(=N)N)NC(=O)[C@@H](Cc2ccc(O)cc2)NC(=O)[C@H](CCN)NC1=O [Example 8, Ac-Arg-cyclo(Glu-Dab-D-Tyr-Arg-Trp-Orn)-NH2] | 71 | 87 | 75 | 48 | 0.55
CC(=O)N[C@@H](CCCNC(=N)N)C(=O)N[C@H]1CCCNC(=O)CC[C@@H](C(N)=O)NC(=O)[C@H](Cc2c[nH]c3ccccc23)NC(=O)[C@H](CCCNC(=N)N)NC(=O)[C@@H](Cc2ccccc2Cl)NC(=O)[C@H](CCC(N)=O)NC1=O [Example 112, Ac-Arg-cyclo(Orn-Gln-D-Phe(2-Cl)-Arg-Trp-Glu)-NH2] | 83 | 101 | 4 | – | 0.07
CC(=O)N[C@@H](CCCNC(=N)N)C(=O)N[C@H]1CCCCNC(=O)C[C@@H](C(N)=O)NC(=O)[C@H](Cc2c[nH]c3ccccc23)NC(=O)[C@H](CCCNC(=N)N)NC(=O)[C@@H](Cc2ccc(C#N)cc2)NC(=O)[C@H](CCC(N)=O)NC1=O [Example 93, Ac-Arg-cyclo(Lys-Gln-D-Phe(4-CN)-Arg-Trp-Asp)-NH2] (Ac-RKQ[dPhe(4-CN)]RWD-NH2; lactam 2-7) | 44 | 97 | 1 | 0.3 | 0.17
CC(=O)N[C@@H](CCCNC(=N)N)C(=O)N[C@H]1CCC(=O)NCCC[C@@H](C(N)=O)NC(=O)[C@H](Cc2c[nH]c3ccccc23)NC(=O)[C@H](CCCNC(=N)N)NC(=O)[C@@H](Cc2cccc(Cl)c2)NC(=O)[C@H](CCN)NC1=O [Example 2, Ac-Arg-cyclo(Glu-Dab-D-Phe(3-Cl)-Arg-Trp-Orn)-NH2] | 36 | 99 | 0.75 | 0.56 | 0.095
CC(=O)N[C@H](CCCNC(=N)N)C(=O)N[C@H]1CCCNC(=O)CC[C@@H](C(N)=O)NC(=O)[C@H](Cc2c[nH]c3ccccc23)NC(=O)[C@H](CCCNC(=N)N)NC(=O)[C@@H](Cc2ccccc2Cl)NC(=O)[C@H](Cc2c[nH]cn2)NC1=O [Example 50, Ac-D-Arg-cyclo(Orn-His-D-Phe(2-Cl)-Arg-Trp-Glu)-NH2] | 94 | 94 | 1 | 0.21 | 0.085
CC(=O)N[C@@H](CCCNC(=N)N)C(=O)N[C@H]1CCC(=O)NCCC[C@@H](C(N)=O)NC(=O)[C@H](Cc2c[nH]c3ccccc23)NC(=O)[C@H](CCCNC(=N)N)NC(=O)[C@@H](Cc2ccc(C#N)cc2)NC(=O)[C@H](CCN)NC1=O [Example 7, Ac-Arg-cyclo(Glu-Dab-D-Phe(4-CN)-Arg-Trp-Orn)-NH2] | 48 | 100 | 0.833 | 0.3 | 0.135
CC(=O)N[C@@H](CCCNC(=N)N)C(=O)N[C@H]1CCC(=O)NCCC[C@@H](C(N)=O)NC(=O)[C@H](Cc2c[nH]c3ccccc23)NC(=O)[C@H](CCCNC(=N)N)NC(=O)[C@@H](Cc2ccc(C#N)cc2)NC(=O)[C@H](C(C)C)NC1=O [Example 42, Ac-Arg-cyclo(Glu-Val-D-Phe(4-CN)-Arg-Trp-Orn)-NH2] | 9 | 84 | 6 | – | 0.5
CC(=O)N[C@@H](CCCNC(=N)N)C(=O)N[C@H]1CCC(=O)NCCC[C@@H](C(N)=O)NC(=O)[C@H](Cc2c[nH]c3ccccc23)NC(=O)[C@H](CCCNC(=N)N)NC(=O)[C@@H](Cc2cccc(Cl)c2)NC(=O)[C@H](CCCCN)NC1=O [Example 100, Ac-Arg-cyclo(Glu-Lys-D-Phe(3-Cl)-Arg-Trp-Orn)-NH2] (Ac-REK[dPhe(3-Cl)]RW[Orn]-NH2; lactam 2-7) | 27 | 93 | 4 | 6 | –
CC(=O)N[C@@H](CCCNC(=N)N)C(=O)N[C@H]1CCCNC(=O)CC[C@@H](C(N)=O)NC(=O)[C@H](Cc2c[nH]c3ccccc23)NC(=O)[C@H](CCCNC(=N)N)NC(=O)[C@@H](Cc2ccccc2Cl)NC(=O)[C@H](CC(N)=O)NC1=O [Example 113, Ac-Arg-cyclo(Orn-Asn-D-Phe(2-Cl)-Arg-Trp-Glu)-NH2] | 80 | 100 | 7 | – | 0.065
CC(=O)N[C@@H](CCCNC(=N)N)C(=O)N[C@H]1CCC(=O)NCCC[C@@H](C(N)=O)NC(=O)[C@H](Cc2c[nH]c3ccccc23)NC(=O)[C@H](CCCNC(=N)N)NC(=O)[C@@H](Cc2ccc(F)cc2)NC(=O)[C@H](CCC(N)=O)NC1=O [Example 92, Ac-Arg-cyclo(Glu-Gln-D-Phe(4-F)-Arg-Trp-Orn)-NH2] | 81 | 89 | 2 | 0.1 | –
